Source: ChEMBL document CHEMBL1201862, “PubChem BioAssay data set” (2004)
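A five-concentration, 48-hour dose response in 96-well plates underlies each endpoint, interpolated linearly between surrounding concentrations. The concentration for 50% growth inhibition is given as GI50.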 Calls of active or inactive are those of the source. Rule as the data show it: active = GI50 up to about 1.1 µM and inactive = higher. Square brackets hold non-standard residues; d marks the D form. Peptide text beside a SMILES is read from it. * marks the point of attachment. ξ: configuration not given here. NMeY = CN[C@@H](Cc1ccc(O)cc1)C(=O)O; Cbz = O=C(OCc1ccccc1)*; ξA = CC(N)C(=O)O

Columns and labels:
Assay in all cases: NCI anticancer screen, dose series, 48 h
[1] = test system: SW-620
[2] = test system: K562
[3] = test system: HL-60
[4] = test system: SF-268
[5] = test system: SR
[6] = test system: HCT-15
[7] = test system: SN12C
[8] = test system: SNB-19
[9] = test system: A549
[10] = test system: LXFL 529
[11] = test system: CAKI-1
[12] = test system: Malme-3M
[13] = test system: ACHN
[14] = test system: HCT-116
[15] = test system: M19-MEL
[16] = test system: HT-29
[17] = test system: UACC-257
[18] = test system: MCF7
[19] = test system: HOP-92
[20] = test system: PC-3

Structure (SMILES)	GI50 [1]	GI50 [2]	GI50 [3]	GI50 [4]	GI50 [5]	GI50 [6] [µM]	GI50 [7]	GI50 [8]	GI50 [9]	GI50 [10]	GI50 [11]	GI50 [12]	GI50 [13]	GI50 [14]	GI50 [15]	GI50 [16]	GI50 [17]	GI50 [18]	GI50 [19]	GI50 [20]
C/C(=C\c1ccccc1)C(O)S(=O)(=O)O (stereo unspecified)	> 100 µM (inactive)	> 100 µM (inactive)	> 100 µM (inactive)	> 100 µM (inactive)	> 100 µM (inactive)	> 100	> 100 µM (inactive)	> 100 µM (inactive)	> 100 µM (inactive)	> 100 µM (inactive)	> 100 µM (inactive)	> 100 µM (inactive)	> 100 µM (inactive)	> 100 µM (inactive)	> 100 µM (inactive)	> 100 µM (inactive)	> 100 µM (inactive)			
COC(=O)CCC(C)[C@H]1CCC2C3C(C[C@H](OC(C)=O)[C@@]21C)[C@@]1(C)CCC2(C[C@H]1C[C@H]3OC(C)=O)OOC1(CCCCC1)OO2 (stereo partly specified)	33.3 µM (inactive)	10.3 µM (inactive)	7.26 µM (inactive)	25 µM (inactive)	4.26 µM (inactive)	21.8	36.6 µM (inactive)	42.2 µM (inactive)	11.3 µM (inactive)		41.1 µM (inactive)	36.4 µM (inactive)	11.2 µM (inactive)	5.58 µM (inactive)		41.9 µM (inactive)	19.1 µM (inactive)	22.3 µM (inactive)	1.02 µM (active)	5.97 µM (inactive)
CC(=O)c1csc2c1C(=O)c1ccccc1C2=O	2.2 µM (inactive)	3.92 µM (inactive)	0.29 µM (active)	2.78 µM (inactive)	3.66 µM (inactive)	4.55	2.25 µM (inactive)	2.12 µM (inactive)	1.92 µM (inactive)		3.99 µM (inactive)	0.483 µM (active)	2.02 µM (inactive)	2.24 µM (inactive)		2.02 µM (inactive)	1.46 µM (inactive)	2.1 µM (inactive)	30.5 µM (inactive)	7.57 µM (inactive)
O=C1OC2C(O)C(=O)OC2C1O (stereo unspecified)	> 100 µM (inactive)	> 100 µM (inactive)	> 100 µM (inactive)	> 100 µM (inactive)	> 100 µM (inactive)	> 100	> 100 µM (inactive)	> 100 µM (inactive)	> 100 µM (inactive)		> 100 µM (inactive)	> 100 µM (inactive)	> 100 µM (inactive)	> 100 µM (inactive)		> 100 µM (inactive)	> 100 µM (inactive)	> 100 µM (inactive)	> 100 µM (inactive)	> 100 µM (inactive)
COc1ccc(C[C@@H](C(=O)N[C@@H](C)C(N)=O)N(C)C(=O)[C@@H]2CCCN2C(=O)[C@H](CC(C)C)NC(=O)C(C)NC(=O)OCc2ccccc2)cc1 (stereo partly specified) (Cbz-[ξA]LP[NMeY](Me)A-NH2)	> 100 µM (inactive)	84.3 µM (inactive)	> 100 µM (inactive)	> 100 µM (inactive)	> 100 µM (inactive)	> 100	> 100 µM (inactive)	> 100 µM (inactive)	> 100 µM (inactive)		> 100 µM (inactive)	> 100 µM (inactive)	> 100 µM (inactive)	> 100 µM (inactive)		> 100 µM (inactive)	> 10 µM (inactive)	> 100 µM (inactive)	> 100 µM (inactive)	61.7 µM (inactive)
COc1ccc2c(c1)N=C1CSC(c3cccc(Br)c3)N1C2 (stereo unspecified)	25.5 µM (inactive)	3.85 µM (inactive)	9.51 µM (inactive)	28.9 µM (inactive)	4.52 µM (inactive)	6.14	19.5 µM (inactive)	22.5 µM (inactive)	16.6 µM (inactive)		6.19 µM (inactive)	18 µM (inactive)	13.3 µM (inactive)	10.8 µM (inactive)		14.8 µM (inactive)	10.5 µM (inactive)	6.59 µM (inactive)	16.7 µM (inactive)	11.5 µM (inactive)
CCN(CCCl)c1cc(CN(C)C)cc(NC(=O)C23CCC(C(=O)Nc4cc(CN(C)C)cc(N(CC)CCCl)c4)(CC2)CC3)c1	0.105 µM (active)	0.738 µM (active)	0.0157 µM (active)	0.23 µM (active)	0.0329 µM (active)	13.4	0.245 µM (active)	0.113 µM (active)	1.03 µM (active)		11.1 µM (inactive)	1.71 µM (inactive)	2.22 µM (inactive)	1.11 µM (active)		0.229 µM (active)	3.96 µM (inactive)	0.0255 µM (active)	1.43 µM (inactive)	0.351 µM (active)
COc1c(CC(C)=O)ccc2c1C(=O)c1ccc(C=O)c(OC(C)=O)c1C2=O	12.6 µM (inactive)	11.6 µM (inactive)	5.06 µM (inactive)	4.38 µM (inactive)		5.57	12.9 µM (inactive)	19.9 µM (inactive)	31.8 µM (inactive)	5.53 µM (inactive)	17.8 µM (inactive)	12.7 µM (inactive)	15.1 µM (inactive)	11.9 µM (inactive)		13.9 µM (inactive)	14.3 µM (inactive)		18.9 µM (inactive)	
